Experiments:
Experiment in all cases: viability relative to DMSO control (fraction); higher = less drug effect (more viable cells)
Details in all cases: 48 h
Midostaurin hydrate = compound: CO[C@@H]1[C@H](N(C)C(=O)c2ccccc2)C[C@H]2O[C@]1(C)n1c3ccccc3c3c4c(c5c6ccccc6n2c5c31)C(=O)NC4 [Midostaurin hydrate]
In short: (§1)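 Compounds were pre-plated at five concentrations, one well each, in 384-well plates, and primary mononuclear tumour cells were plated on them at 4 × 10^4 cells per well. The cells, fresh or cryopreserved, had been Ficoll-isolated from blood or bone marrow or taken from processed lymph node. After 48 h at 37 °C and 5% CO2 in RPMI-1640 with penicillin/streptomycin, L-glutamine and human serum, viability was read as CellTiter-Glo luminescence relative to the median of 16 inner DMSO wells.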

Filgotinib = compound: O=C(Nc1nc2cccc(-c3ccc(CN4CCS(=O)(=O)CC4)cc3)n2n1)C1CC1 [Filgotinib]
In short: as §1

Tofacitinib = compound: C[C@@H]1CCN(C(=O)CC#N)C[C@@H]1N(C)c1ncnc2[nH]ccc12 [Tofacitinib]
In short: as §1

I-BET-762 = compound: CCNC(=O)C[C@@H]1N=C(c2ccc(Cl)cc2)c2cc(OC)ccc2-n2c(C)nnc21 [I-BET-762]
In short: as §1

SGC 0946 = compound: CC(C)N(CCCNC(=O)Nc1ccc(C(C)(C)C)cc1)C[C@H]1O[C@@H](n2cc(Br)c3c(N)ncnc32)[C@H](O)[C@@H]1O [SGC 0946]
In short: as §1

Pomalidomide = compound: Nc1cccc2c1C(=O)N(C1CCC(=O)NC1=O)C2=O [Pomalidomide]
In short: as §1

Idasanutlin (RS7388) = compound: COc1cc(C(=O)O)ccc1NC(=O)[C@@H]1N[C@@H](CC(C)(C)C)[C@](C#N)(c2ccc(Cl)cc2F)[C@H]1c1cccc(Cl)c1F [Idasanutlin (RS7388)]
In short: as §1

CPI-169 = compound: CCS(=O)(=O)N1CCC([C@@H](C)n2c(C)c(C(=O)NCc3c(OC)cc(C)[nH]c3=O)c3ccccc32)CC1 [CPI-169]
In short: as §1

Barasertib = compound: CCN(CCCOc1ccc2c(Nc3cc(CC(=O)Nc4cccc(F)c4)[nH]n3)ncnc2c1)CCOP(=O)(O)O [Barasertib]
In short: as §1

EPZ-6438 = compound: CCN(c1cc(-c2ccc(CN3CCOCC3)cc2)cc(C(=O)NCc2c(C)cc(C)[nH]c2=O)c1C)C1CCOCC1 [EPZ-6438]
In short: as §1

Thalidomide = compound: O=C1CCC(N2C(=O)c3ccccc3C2=O)C(=O)N1 [Thalidomide]
In short: as §1

Venetoclax = compound: CC1(C)CCC(CN2CCN(c3ccc(C(=O)NS(=O)(=O)c4ccc(NCC5CCOCC5)c([N+](=O)[O-])c4)c(Oc4cnc5[nH]ccc5c4)c3)CC2)=C(c2ccc(Cl)cc2)C1 [Venetoclax]
In short: as §1

[1] = compound: O=C(NO)c1cccc(C(=O)NCCc2ccccc2)c1
In short: as §1

Bendamustine = compound: Cn1c(CCCC(=O)O)nc2cc(N(CCCl)CCCl)ccc21 [Bendamustine]
In short: as §1

Chlorambucil = compound: O=C(O)CCCc1ccc(N(CCCl)CCCl)cc1 [Chlorambucil]
In short: as §1

primary MCL patient cells (S068)
viability (Midostaurin hydrate; 0.024 µM): 0.901 | viability (Midostaurin hydrate; 0.12 µM): 0.855 | viability (Midostaurin hydrate; 0.6 µM): 0.699 | viability (Midostaurin hydrate; 3 µM): 0.431 | viability (Midostaurin hydrate; 15 µM): 0.24 | viability (Filgotinib; 0.024 µM): 0.923 | viability (Filgotinib; 0.12 µM): 0.909 | viability (Filgotinib; 0.6 µM): 0.956 | viability (Filgotinib; 3 µM): 1.13 | viability (Filgotinib; 15 µM): 0.614 | viability (Tofacitinib; 0.024 µM): 0.953 | viability (Tofacitinib; 0.12 µM): 0.948 | viability (Tofacitinib; 0.6 µM): 0.896 | viability (Tofacitinib; 3 µM): 0.884 | viability (Tofacitinib; 15 µM): 0.757 | viability (I-BET-762; 0.008 µM): 0.993 | viability (I-BET-762; 0.04 µM): 0.932 | viability (I-BET-762; 0.2 µM): 0.69 | viability (I-BET-762; 1 µM): 0.341 | viability (I-BET-762; 5 µM): 0.218 | viability (SGC 0946; 0.024 µM): 0.822 | viability (SGC 0946; 0.12 µM): 0.893 | viability (SGC 0946; 0.6 µM): 0.877 | viability (SGC 0946; 3 µM): 0.79 | viability (SGC 0946; 15 µM): 0.462 | viability (Pomalidomide; 0.0032 µM): 0.909 | viability (Pomalidomide; 0.016 µM): 0.93 | viability (Pomalidomide; 0.08 µM): 0.98 | viability (Pomalidomide; 0.4 µM): 0.929 | viability (Pomalidomide; 2 µM): 0.767 | viability (Idasanutlin (RS7388); 0.032 µM): 0.916 | viability (Idasanutlin (RS7388); 0.16 µM): 0.998 | viability (Idasanutlin (RS7388); 0.8 µM): 0.916 | viability (Idasanutlin (RS7388); 4 µM): 0.74 | viability (Idasanutlin (RS7388); 20 µM): 0.646 | viability (CPI-169; 0.024 µM): 0.823 | viability (CPI-169; 0.12 µM): 0.922 | viability (CPI-169; 0.6 µM): 0.869 | viability (CPI-169; 3 µM): 0.937 | viability (CPI-169; 15 µM): 0.889 | viability (Barasertib; 0.0008 µM): 0.947 | viability (Barasertib; 0.004 µM): 0.894 | viability (Barasertib; 0.02 µM): 0.846 | viability (Barasertib; 0.1 µM): 0.887 | viability (Barasertib; 0.5 µM): 0.97 | viability (EPZ-6438; 0.024 µM): 0.954 | viability (EPZ-6438; 0.12 µM): 1.04 | viability (EPZ-6438; 0.6 µM): 0.997 | viability (EPZ-6438; 3 µM): 0.918 | viability (EPZ-6438; 15 µM): 0.767 | viability (Thalidomide; 0.032 µM): 0.978 | viability (Thalidomide; 0.16 µM): 0.936 | viability (Thalidomide; 0.8 µM): 0.917 | viability (Thalidomide; 4 µM): 0.966 | viability (Thalidomide; 20 µM): 0.96 | viability (Venetoclax; 0.00064 µM): 0.99 | viability (Venetoclax; 0.0032 µM): 0.781 | viability (Venetoclax; 0.016 µM): 0.489 | viability (Venetoclax; 0.08 µM): 0.389 | viability (Venetoclax; 0.4 µM): 0.216 | viability ([1]; 0.024 µM): 0.903 | viability ([1]; 0.12 µM): 0.889 | viability ([1]; 0.6 µM): 0.885 | viability ([1]; 3 µM): 0.965 | viability ([1]; 15 µM): 0.891 | viability (Bendamustine; 0.032 µM): 0.962 | viability (Bendamustine; 0.16 µM): 0.942 | viability (Bendamustine; 0.8 µM): 0.956 | viability (Bendamustine; 4 µM): 0.926 | viability (Bendamustine; 20 µM): 0.656 | viability (Chlorambucil; 0.032 µM): 1.02 | viability (Chlorambucil; 0.16 µM): 1.03 | viability (Chlorambucil; 0.8 µM): 0.941 | viability (Chlorambucil; 4 µM): 0.857 | viability (Chlorambucil; 20 µM): 0.624

primary T-PLL patient cells (S008)
viability (Midostaurin hydrate; 0.024 µM): 1.01 | viability (Midostaurin hydrate; 0.12 µM): 0.968 | viability (Midostaurin hydrate; 0.6 µM): 1.01 | viability (Midostaurin hydrate; 3 µM): 1.04 | viability (Midostaurin hydrate; 15 µM): 0.958 | viability (Filgotinib; 0.024 µM): 1.02 | viability (Filgotinib; 0.12 µM): 1.05 | viability (Filgotinib; 0.6 µM): 0.992 | viability (Filgotinib; 3 µM): 1.01 | viability (Filgotinib; 15 µM): 0.761 | viability (Tofacitinib; 0.024 µM): 0.919 | viability (Tofacitinib; 0.12 µM): 0.906 | viability (Tofacitinib; 0.6 µM): 0.922 | viability (Tofacitinib; 3 µM): 0.913 | viability (Tofacitinib; 15 µM): 0.927 | viability (I-BET-762; 0.008 µM): 1.03 | viability (I-BET-762; 0.04 µM): 1.03 | viability (I-BET-762; 0.2 µM): 1.05 | viability (I-BET-762; 1 µM): 1.03 | viability (I-BET-762; 5 µM): 0.988 | viability (SGC 0946; 0.024 µM): 1.02 | viability (SGC 0946; 0.12 µM): 1.14 | viability (SGC 0946; 0.6 µM): 0.98 | viability (SGC 0946; 3 µM): 1.04 | viability (SGC 0946; 15 µM): 0.868 | viability (Pomalidomide; 0.0032 µM): 0.949 | viability (Pomalidomide; 0.016 µM): 1.07 | viability (Pomalidomide; 0.08 µM): 1.03 | viability (Pomalidomide; 0.4 µM): 0.91 | viability (Pomalidomide; 2 µM): 0.944 | viability (Idasanutlin (RS7388); 0.032 µM): 0.876 | viability (Idasanutlin (RS7388); 0.16 µM): 0.888 | viability (Idasanutlin (RS7388); 0.8 µM): 0.656 | viability (Idasanutlin (RS7388); 4 µM): 0.325 | viability (Idasanutlin (RS7388); 20 µM): 0.125 | viability (CPI-169; 0.024 µM): 1 | viability (CPI-169; 0.12 µM): 0.999 | viability (CPI-169; 0.6 µM): 1.03 | viability (CPI-169; 3 µM): 1.02 | viability (CPI-169; 15 µM): 1.05 | viability (Barasertib; 0.0008 µM): 0.937 | viability (Barasertib; 0.004 µM): 0.926 | viability (Barasertib; 0.02 µM): 0.945 | viability (Barasertib; 0.1 µM): 1.03 | viability (Barasertib; 0.5 µM): 1.06 | viability (EPZ-6438; 0.024 µM): 0.986 | viability (EPZ-6438; 0.12 µM): 1 | viability (EPZ-6438; 0.6 µM): 1.04 | viability (EPZ-6438; 3 µM): 1 | viability (EPZ-6438; 15 µM): 0.918 | viability (Thalidomide; 0.032 µM): 1.04 | viability (Thalidomide; 0.16 µM): 0.979 | viability (Thalidomide; 0.8 µM): 1.04 | viability (Thalidomide; 4 µM): 0.987 | viability (Thalidomide; 20 µM): 1.05 | viability (Venetoclax; 0.00064 µM): 1.03 | viability (Venetoclax; 0.0032 µM): 0.874 | viability (Venetoclax; 0.016 µM): 0.463 | viability (Venetoclax; 0.08 µM): 0.0995 | viability (Venetoclax; 0.4 µM): 0.0666 | viability ([1]; 0.024 µM): 1.07 | viability ([1]; 0.12 µM): 1.03 | viability ([1]; 0.6 µM): 1.03 | viability ([1]; 3 µM): 1.07 | viability ([1]; 15 µM): 1.06 | viability (Bendamustine; 0.032 µM): 1.05 | viability (Bendamustine; 0.16 µM): 1.09 | viability (Bendamustine; 0.8 µM): 0.992 | viability (Bendamustine; 4 µM): 0.983 | viability (Bendamustine; 20 µM): 0.977 | viability (Chlorambucil; 0.032 µM): 0.977 | viability (Chlorambucil; 0.16 µM): 0.955 | viability (Chlorambucil; 0.8 µM): 1.01 | viability (Chlorambucil; 4 µM): 0.984 | viability (Chlorambucil; 20 µM): 0.661
